“And” between values parts separate entries of the source, which are not always exact repeats. Equal entries are not always repeated. Where two headings read alike, the source gives them in different places. Marks after values point to notes of the source that are not given here.
What was measured:
[1] = system: human liver cancer cell line QGY; conditions: mouse, in vivo
[2] = system: human gastric cancer cell line MKN; conditions: mouse, in vivo
S180 sarcomas = format: in vivo, Kunming mice
mice colon carcinoma C26 = conditions: mouse, in vivo, 30 mg/kg
Lewis lung carcinoma = conditions: mouse, in vivo

O=P1(N(CCCl)CCCl)NCCCO1 (centres unmarked) [cyclophosphamide]
inhibition ratio % [1]: 88.79*** % and 89.05*** %
tumor weight x ± SD [1]: 0.25 ± 0.14 and 0.22 ± 0.08
inhibition ratio % [2]: 88.11*** % and 89.06*** %
tumor weight x ± SD [2]: 0.17 ± 0.15 and 0.14 ± 0.05
inhibition rate % (S180 sarcomas; 15.0 mg/kg ip × 7): 45.02*** %
tumor weight (g) x ± SD (S180 sarcomas; 15.0 mg/kg ip × 7): 1.71 ± 0.25 g
inhibition rate % (S180 sarcomas; 30.0 mg/kg ip × 7): 84.24*** %
tumor weight (g) x ± SD (S180 sarcomas; 30.0 mg/kg ip × 7): 0.49 ± 0.12 g
inhibition ratio % (mice colon carcinoma C26): 91.02*** % and 79.12*** %
tumor weight x ± SD (mice colon carcinoma C26): 0.22 ± 0.06 and 0.19 ± 0.06
inhibition ratio % (mice colon carcinoma C26; ip): 91.90*** % and 81.35*** %
tumor weight x ± SD (mice colon carcinoma C26; ip): 0.22 ± 0.06 and 0.18 ± 0.06
inhibition ratio % (Lewis lung carcinoma): 88.32*** % and 88.49*** %
tumor weight x ± SD (Lewis lung carcinoma): 0.25 ± 0.07 and 0.29 ± 0.07
